# From publication PMC10692721, “Drug discovery for heart failure targeting myosin-binding protein C” (The Journal of Biological Chemistry, 2023)
# Where two headings read alike, the source gives them in different places.
# Columns and labels:
# [1] = tested on: TMR-cC0-C2 (C0-C2 fragment of human cMyBP-C); assay: FLT-TMR concentration-response assay (FLT of TMR on cC0-C2, no actin); format: binding; settings: for cC0-C2/cC0-C2#P (ratio of FLT changes) / cC0-C2 FLT change (% change from DMSO, FLT of TMR-MyBP-C): 60 μM compound; for effect on FLT of TMR-cC0-C2 (in words): concentration-response, no actin; for difference in effect on TMR FLT between unphosphorylated and phosphorylated TMR-cC0-C2: from Table 3
# In short: (§1)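 Hits tested at eight concentrations (0.5–100 μM) and read on a high-throughput fluorescence lifetime plate reader. Hill fits applied only under certain conditions.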
# [2] = tested on: PKA-phosphorylated TMR-cC0-C2 (cC0-C2#P); assay: FLT-TMR concentration-response assay, PKA-phosphorylated cC0-C2; format: binding, human; settings: for cC0-C2#P FLT change (% change from DMSO, FLT of TMR-MyBP-C): 60 μM compound; for effect on FLT of PKA-phosphorylated TMR-cC0-C2 (in words): concentration-response, no actin
# In short: as §1
# [3] = tested on: TMR-fC1-C2 (C1-C2 of fast skeletal MyBP-C); assay: FLT-TMR concentration-response assay, fC1-C2; format: binding; settings: for cC0-C2/fC1-C2 (ratio of FLT changes) / fC1-C2 FLT change (% change from DMSO, FLT of TMR-MyBP-C): 60 μM compound; for effect on FLT of TMR-fC1-C2 (in words): concentration-response, no actin; for difference in effect on TMR FLT between unphosphorylated TMR-cC0-C2 and TMR-fC1-C2: from Table 3
# In short: as §1
# [4] = tested on: FMAL-actin/TMR-cC0-C2 interaction; assay: FLT-FRET concentration-response assay, FMAL-actin plus TMR-cC0-C2; format: binding, human; settings: for effect on FLT-FRET / binding between FMAL-actin and TMR-cC0-C2 (in words): unphosphorylated cC0-C2; for specificity of FLT-FRET effect for unphosphorylated over phosphorylated cC0-C2: effect on cC0-C2 compared to phosphorylated cC0-C2 (Tables 1 and 2)
# In short: as §1
# [5] = tested on: FMAL-actin/PKA-phosphorylated TMR-cC0-C2 interaction; assay: FLT-FRET concentration-response assay, FMAL-actin plus PKA-phosphorylated TMR-cC0-C2; format: binding, human
# Description: (§2) Compounds identified as initial hits were further examined to determine the concentration–response curves for seven conditions ([1]): FMAL-actin alone identified actin-binding compounds that alter the FLT of FMAL-actin ([2]).
# (§3) Fluorescence lifetime (FLT) measurements were acquired using a high-throughput FLT plate reader (Fluorescence Innovations, Inc) ([14], [27]), provided by Photonic Pharma LLC. […] The observed waveforms were analyzed as described previously ([15], [28]).
# (§4) The primary hits were dissolved in DMSO to make a 10 mM stock solution, which was serially diluted in 96-well mother plates. Hits were screened at eight concentrations (0.5–100 μM). […] Compounds (1 μl) were transferred from the mother plates into 384-well plates using a Mosquito HV liquid handler (TTP Labtech Ltd, Hertfordshire, UK). The same procedure of dispensing as for the pilot screening was applied in the concentration-response assays. Concentration dependence of the FLT-FRET (E/EDMSO) or FLT-TMR (Δτ) change data was fit to a Hill equation only under certain conditions to help guide the eye (Fig. 4).
# [6] = tested on: FMAL-actin/TMR-fC1-C2 interaction; assay: FLT-FRET concentration-response assay, FMAL-actin plus TMR-fC1-C2; format: binding
# Description: as §2, §3, §4
# [7] = tested on: FMAL-actin plus TMR-cC0-C2; assay: Selleck library HTS, 473 nm excitation (FLT of FMAL-actin with TMR-cC0-C2, FLT-FRET); format: binding, human; settings: for 473-nm Δτ, Repeat 1 / 473-nm Δτ, Repeat 2: initial screen, 30 μM compound; for 473-nm z-score (based on avg Δτ): robust z-score, hit threshold ±4, 30 μM compound
# In short: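 Donor fluorescence lifetime was then recorded. Waveforms were fit to a single exponential, and ΔFLT was obtained after a moving-median plate-gradient correction (half-row window), rescaled by the median DMSO lifetime.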
# TMR-cC0-C2 = assay: Selleck library HTS, 532 nm excitation (FLT of TMR-cC0-C2 in presence of FMAL-actin); format: binding, human; settings: for 532-nm Δτ, Repeat 1 / 532-nm Δτ, Repeat 2: initial screen, 30 μM compound; for 532-nm z-score (based on avg Δτ): robust z-score, hit threshold ±4, 30 μM compound
effect on FLT-FRET / binding between FMAL-actin and TMR-cC0-C2 (in words) [4],effect on FLT-FRET / binding between FMAL-actin and PKA-phosphorylated TMR-cC0-C2 (in words) [5],effect on FLT-FRET / binding between FMAL-actin and TMR-fC1-C2 (in words) [6],Compound,cC0-C2/cC0-C2#P (ratio of FLT changes) [1],"cC0-C2 FLT change (% change from DMSO, FLT of TMR-MyBP-C) [1] [%]",effect on FLT of TMR-cC0-C2 (in words) [1],difference in effect on TMR FLT between unphosphorylated and phosphorylated TMR-cC0-C2 [1] [fold],"cC0-C2#P FLT change (% change from DMSO, FLT of TMR-MyBP-C) [2] [%]",effect on FLT of PKA-phosphorylated TMR-cC0-C2 (in words) [2],cC0-C2/fC1-C2 (ratio of FLT changes) [3],"fC1-C2 FLT change (% change from DMSO, FLT of TMR-MyBP-C) [3] [%]",effect on FLT of TMR-fC1-C2 (in words) [3],difference in effect on TMR FLT between unphosphorylated TMR-cC0-C2 and TMR-fC1-C2 [3] [fold],"473-nm Δτ, Repeat 1 [7] [ns]","473-nm Δτ, Repeat 2 [7] [ns]",473-nm z-score (based on avg Δτ) [7],"532-nm Δτ, Repeat 1 (TMR-cC0-C2) [ns]","532-nm Δτ, Repeat 2 (TMR-cC0-C2) [ns]",532-nm z-score (based on avg Δτ) (TMR-cC0-C2),specificity of FLT-FRET effect for unphosphorylated over phosphorylated cC0-C2 [4],also measured
decreased,decreased,decreased,CCC(=O)O[C@H]1[C@H](O[C@@H]2[C@@H](C)[C@H](O[C@H]3C[C@@](C)(OC)[C@@H](O)[C@H](C)O3)[C@@H](C)C(=O)O[C@H](CC)[C@@](C)(O)[C@H](O)[C@@H](C)C(=O)[C@H](C)C[C@@]2(C)O)O[C@H](C)C[C@@H]1N(C)C [Erythromycin estolate],5.9,−14.1,affect,5.9,−2.4,decreases,6.7,−2.1,decreases,6.7,0.149,0.101,7.01,0.002,-0.031,-0.86,,effect on FLT of TMR-cC0-C2 (in words) ([1]; listed as Erthromycin estolate): decreases; effect on FLT-FRET / binding between FMAL-actin and TMR-cC0-C2 (in words) ([4]; listed as Erthromycin estolate): biphasic effect; effect on FLT-FRET / binding between FMAL-actin and PKA-phosphorylated TMR-cC0-C2 (in words) ([5]; listed as Erthromycin estolate): biphasic effect; effect on FLT-FRET / binding between FMAL-actin and TMR-fC1-C2 (in words) ([6]; listed as Erthromycin estolate): biphasic effect
does not have any effect,increases,does not have any effect,Clc1ccc(C(Cn2ccnc2)OCc2ccc(Sc3ccccc3)cc2)c(Cl)c1 (stereo not shown) [Fenticonazole nitrate],0.8,−4.7,slightly decreases,,−6.0,slightly decreases,11.8,0.4,does not affect,11.8,-0.069,-0.104,-4.80,-0.011,-0.035,-1.35,,preference for increasing the binding of phosphorylated over unphosphorylated cC0-C2 (FLT-FRET) [5]: 5 fold
decreased,decreased,decreased,"COc1cc(Nc2ncc(F)c(Nc3ccc4c(n3)N(COP(=O)(O)O)C(=O)C(C)(C)O4)n2)cc(OC)c1OC [Fostamatinib (R788), Fostamatinib]",3.3,2.3,affect,3.3,0.7,,5.8,0.4,,5.8,0.110,0.046,4.40,-0.027,-0.063,-2.72,5 fold,
affected the binding to actin,no effect,affected the binding to actin,Tocofersolan,1.0,3.3,,,3.2,,1.2,2.8,,,-0.166,-0.159,-9.06,0.072,0.065,4.23,13–54 fold,fold effect on increased FRET (or binding) (Table 2) ([4]; comparison not given): fivefold or greater
